Results as given in patent publication US11028087B2, “2,6-disubstituted-9-cyclopentyl-9H-purines, use thereof as medicaments, and pharmaceutical compositions” (UNIVERZITA PALACKEHO V OLOMOUCI, priority 2017, dated 2021).
Residue numbers refer to the chain shown, from its start.

Columns and labels:
Experiment in all cases: Kinase inhibition assay with [γ-33P]ATP
Type in all cases: biochemical
FLT3 D835 = target: T1, FLT3 D835 (Homo sapiens, UniProt P36888); settings: AGLT substrate, 1 μM ATP
T1 sequence (P36888 1-993 D835Y): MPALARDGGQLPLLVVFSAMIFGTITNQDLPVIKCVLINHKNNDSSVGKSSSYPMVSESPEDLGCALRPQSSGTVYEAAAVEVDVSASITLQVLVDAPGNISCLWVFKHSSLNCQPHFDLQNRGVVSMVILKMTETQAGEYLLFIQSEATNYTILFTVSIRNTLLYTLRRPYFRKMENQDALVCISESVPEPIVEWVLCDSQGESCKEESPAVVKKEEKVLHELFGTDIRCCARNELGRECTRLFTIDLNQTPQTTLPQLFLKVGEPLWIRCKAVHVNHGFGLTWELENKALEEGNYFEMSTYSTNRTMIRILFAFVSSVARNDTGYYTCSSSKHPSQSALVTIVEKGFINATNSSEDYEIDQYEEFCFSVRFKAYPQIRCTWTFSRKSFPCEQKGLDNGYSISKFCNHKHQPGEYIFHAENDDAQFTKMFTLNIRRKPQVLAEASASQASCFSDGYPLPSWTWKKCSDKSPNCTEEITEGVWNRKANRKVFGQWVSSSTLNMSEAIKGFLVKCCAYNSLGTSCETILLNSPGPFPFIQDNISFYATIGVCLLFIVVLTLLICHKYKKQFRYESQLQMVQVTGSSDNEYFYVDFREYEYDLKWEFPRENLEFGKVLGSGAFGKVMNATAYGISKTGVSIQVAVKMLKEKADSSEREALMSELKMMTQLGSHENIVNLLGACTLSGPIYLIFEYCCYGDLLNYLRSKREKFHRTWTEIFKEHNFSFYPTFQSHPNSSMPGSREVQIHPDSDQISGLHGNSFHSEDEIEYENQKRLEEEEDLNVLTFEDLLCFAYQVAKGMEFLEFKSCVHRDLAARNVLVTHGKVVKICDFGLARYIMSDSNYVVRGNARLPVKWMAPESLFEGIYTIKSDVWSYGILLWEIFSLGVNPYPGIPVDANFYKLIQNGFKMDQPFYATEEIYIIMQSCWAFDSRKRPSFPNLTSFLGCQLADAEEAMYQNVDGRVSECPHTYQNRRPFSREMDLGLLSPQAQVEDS
Protocol: (§1) CDK1/Cyclin B and CDK2/Cyclin E kinases were produced in Sf9 insect cells via baculoviral infection and purified on a NiNTA column (Qiagen). CDK5/p35 and CDK7Cyclin H/MAT1, FLT3 WT, FLT3-ITD and FLT3 D835 were purchased from ProQinase GmbH. The kinase reactions were assayed with 1 mg/mL histone H1 (for CDK1, CDK2 and CDK5), (YSPTSPS)2KK peptide (for CDK7) or AGLT substrate (for FLT3) in the presence of 15/15/0.15/1.5/1 μM ATP (for CDK1/CDK2/CDK5/CDK7/FLT3), 0.05 μCi [γ-^33P]ATP and of the test compound in a final volume of 10 μL, all in a reaction buffer (60 mM HEPES-NaOH, pH 7.5, 3 mM MgCl2, 3 mM MnCl2, 3 μM Na-orthovanadate, 1.2 mM DTT, 2.5 μg/50 μl PEG20,000). The reactions were stopped by adding 5 μL of 3% aq H3PO4. Aliquots were spotted onto P-81 phosphocellulose (Whatman), washed 3× with 0.5% aq H3PO4 and finally air-dried.

CDK2/Cyclin E = target: T2, CDK2/Cyclin E (Homo sapiens, UniProt P24941); settings: histone H1, 15 μM ATP; read-out: IC50 values (μM) CDK2
T2 construct: made in house; host or cells: Sf9 insect cells, baculoviral infection
Protocol: as §1

CDK1/Cyclin B = target: T3, CDK1/Cyclin B (Homo sapiens, UniProt P06493); settings: histone H1, 15 μM ATP
T3 construct: made in house; host or cells: Sf9 insect cells, baculoviral infection
Protocol: as §1

CDK5/p35 = target: T4, CDK5/p35 (Homo sapiens, UniProt Q00535); settings: histone H1, 0.15 μM ATP
T4 construct: purchased ProQinase GmbH
Protocol: as §1

FLT3 WT = target: T5, FLT3 WT (Homo sapiens, UniProt P36888); settings: AGLT substrate, 1 μM ATP
T5 construct: purchased ProQinase GmbH
T5 sequence (P36888 27-993): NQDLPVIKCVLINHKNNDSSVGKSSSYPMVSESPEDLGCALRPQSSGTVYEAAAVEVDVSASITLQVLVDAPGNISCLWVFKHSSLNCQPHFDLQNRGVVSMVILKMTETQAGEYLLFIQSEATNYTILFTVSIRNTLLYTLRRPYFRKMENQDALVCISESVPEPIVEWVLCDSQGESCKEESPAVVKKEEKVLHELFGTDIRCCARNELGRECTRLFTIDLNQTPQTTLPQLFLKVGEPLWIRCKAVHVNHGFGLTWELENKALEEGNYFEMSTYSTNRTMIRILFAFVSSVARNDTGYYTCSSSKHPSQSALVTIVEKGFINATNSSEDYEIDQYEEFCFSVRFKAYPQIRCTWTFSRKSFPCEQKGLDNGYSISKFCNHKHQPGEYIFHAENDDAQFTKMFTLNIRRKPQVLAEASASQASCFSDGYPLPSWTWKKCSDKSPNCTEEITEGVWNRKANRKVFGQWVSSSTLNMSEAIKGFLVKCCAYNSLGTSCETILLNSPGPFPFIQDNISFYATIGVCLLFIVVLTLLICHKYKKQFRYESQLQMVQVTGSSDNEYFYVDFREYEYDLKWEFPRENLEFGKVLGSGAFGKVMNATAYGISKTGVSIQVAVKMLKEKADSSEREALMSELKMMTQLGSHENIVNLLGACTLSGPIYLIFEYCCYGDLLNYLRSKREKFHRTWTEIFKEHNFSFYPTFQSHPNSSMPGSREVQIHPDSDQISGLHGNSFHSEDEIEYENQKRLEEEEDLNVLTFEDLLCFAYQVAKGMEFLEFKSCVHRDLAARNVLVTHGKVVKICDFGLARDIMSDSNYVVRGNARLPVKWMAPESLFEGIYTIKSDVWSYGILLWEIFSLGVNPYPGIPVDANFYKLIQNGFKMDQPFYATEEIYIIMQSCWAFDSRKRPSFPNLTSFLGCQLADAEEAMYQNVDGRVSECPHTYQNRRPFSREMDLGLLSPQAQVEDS
Protocol: as §1

FLT3-ITD = target: T6, FLT3-ITD (Homo sapiens, UniProt P36888); settings: AGLT substrate, 1 μM ATP; read-out: IC50 values (μM) FLT3 ITD
T6 sequence (P36888 1-993): T1 sequence (P36888 1-993 D835Y) with Y835D
Protocol: as §1

T4 sequence (Q00535 whole entry): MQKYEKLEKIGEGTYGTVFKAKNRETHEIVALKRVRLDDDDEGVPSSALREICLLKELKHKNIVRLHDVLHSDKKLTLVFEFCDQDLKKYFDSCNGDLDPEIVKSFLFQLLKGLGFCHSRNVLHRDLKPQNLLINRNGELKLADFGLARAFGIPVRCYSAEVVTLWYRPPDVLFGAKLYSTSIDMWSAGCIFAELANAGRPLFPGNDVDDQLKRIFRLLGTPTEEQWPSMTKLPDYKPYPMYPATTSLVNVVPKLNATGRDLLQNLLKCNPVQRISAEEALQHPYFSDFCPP
T4 sequence (Q15078 whole entry partner): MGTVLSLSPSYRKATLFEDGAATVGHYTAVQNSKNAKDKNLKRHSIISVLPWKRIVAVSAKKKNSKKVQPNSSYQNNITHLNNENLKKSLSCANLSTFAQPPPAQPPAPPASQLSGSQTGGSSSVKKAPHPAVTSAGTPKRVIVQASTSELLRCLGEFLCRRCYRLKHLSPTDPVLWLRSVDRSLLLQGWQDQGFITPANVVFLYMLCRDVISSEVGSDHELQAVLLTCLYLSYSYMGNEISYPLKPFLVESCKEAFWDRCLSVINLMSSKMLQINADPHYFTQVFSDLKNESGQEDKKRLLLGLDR
T3 sequence (P06493 whole entry, species assumed): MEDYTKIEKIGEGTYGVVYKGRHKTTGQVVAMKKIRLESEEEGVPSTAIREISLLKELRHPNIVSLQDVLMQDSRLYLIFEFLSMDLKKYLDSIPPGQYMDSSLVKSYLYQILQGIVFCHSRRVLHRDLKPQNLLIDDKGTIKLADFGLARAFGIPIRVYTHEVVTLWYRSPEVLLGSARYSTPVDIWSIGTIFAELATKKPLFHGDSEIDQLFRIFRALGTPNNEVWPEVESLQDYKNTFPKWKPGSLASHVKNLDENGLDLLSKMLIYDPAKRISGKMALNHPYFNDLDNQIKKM
T3 sequence (P14635 whole entry partner, species assumed): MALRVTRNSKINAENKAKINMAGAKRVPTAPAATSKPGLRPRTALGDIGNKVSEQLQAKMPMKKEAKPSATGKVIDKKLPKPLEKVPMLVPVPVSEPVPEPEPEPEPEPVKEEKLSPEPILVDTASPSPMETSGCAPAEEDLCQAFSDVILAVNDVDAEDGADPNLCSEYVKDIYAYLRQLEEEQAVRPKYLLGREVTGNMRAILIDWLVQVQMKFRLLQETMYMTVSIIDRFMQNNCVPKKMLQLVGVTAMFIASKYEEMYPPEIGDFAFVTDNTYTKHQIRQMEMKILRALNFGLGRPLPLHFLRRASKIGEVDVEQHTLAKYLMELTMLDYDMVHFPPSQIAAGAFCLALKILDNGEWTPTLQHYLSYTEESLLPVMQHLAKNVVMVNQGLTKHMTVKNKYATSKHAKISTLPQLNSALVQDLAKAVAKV

## CCN1CC2(C1)CN(Cc1ccc(Nc3nc(NCCCN)nc4c3ncn4C3CCCC3)cc1)C2 [Compound 20]
FLT3 D835
  IC50: 0.004 µM
CDK2/Cyclin E
  IC50: 0.005 µM
CDK1/Cyclin B
  IC50: 0.04 µM
CDK5/p35
  IC50: 0.044 µM
FLT3 WT
  IC50: 0.015 µM
FLT3-ITD
  IC50: 0.004 µM
